In patent publication US20060211651A1, “Persulfated oligosaccharide acting on selectins and chemokine” (Taisho Pharmaceutical Co., Ltd., priority 2002, published 2006):

Tests used:
[1] = target: T1, monomeric CD44 (Homo sapiens, UniProt P16070); assay: BIAcore surface plasmon resonance, immobilized glycosaminoglycan vs monomeric CD44; type: binding
T1 construct: codons of amino acids positions 172 to 178 of human CD44; Myc-His (from vector pcDNA 3.1/Myc-His(+) B) (C); made in house; host or cells: 293T cells, secreted into conditioned medium and purified on anti-CD44 BRIC 235 Sepharose
T1 sequence (P16070 21-178 limits assumed): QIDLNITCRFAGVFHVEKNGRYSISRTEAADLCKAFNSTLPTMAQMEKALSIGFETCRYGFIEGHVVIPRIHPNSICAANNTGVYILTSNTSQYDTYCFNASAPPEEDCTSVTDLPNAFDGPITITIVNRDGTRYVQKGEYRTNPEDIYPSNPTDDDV
Protocol: Human-derived CD44 cDNA was prepared by PCR using a sense primer (SEQ ID NO: 1):
Thereafter, the conditioned medium was subjected to immunoaffinity chromatography with anti-CD44 monoclonal antibody BRIC 235-coupled CNBr-activated Sepharose 4B, to obtain monomeric CD44. The resulting soluble CD44 was subjected to SDS-PAGE and silver staining. As a result, the purity of the resulting soluble CD44 was more than 95%.
Affinity kinetics of the interaction between various CS/DS chains and each of L-selectin, P-selectin, CD44 and chemokine were examined by surface plasmon resonance using BIAcore™ biosensor [manufactured by BIAcore AB].
All experiments were performed at 25° C. At stages of washing and dissociation, buffer C (20 mM HEPES-NaOH, 0.15M NaCl, 1 mM CaCl2, 1 mM MgCl2, pH6.8) was used as a running buffer.
First, about 1.8 to 2.0 kiloresonance unit (1 kiloresonance unit=1 ng/mm^2) of streptavidin were covalently immobilized onto B1 sensor chip via a primary amine group using an amine coupling kit [manufactured by Amercham-Bioscience] according to the instruction provided by the manufacturer. The remaining activated groups were blocked with 150 μl of 1M ethanolamine-HCl (pH8.5). Then, each glycosaminoglycan which had been biotinylated at a reducing end was injected to a sensor tip surface by using EZ-link™ biotin-LC-hydrazide [manufactured by Pierce] so as to obtain about 150 resonance unit of an immobilization level, according to the method of Sadir et al. [J. Biol. Chem., 276, 8288-8296 (2001); all teachings of which are hereby incorporated by reference].
Binding assay was performed by injecting continuously each of various concentrations of secondary lymphoid tissue chemokine, γ-interferon inducible protein-10, stromal cell-derived factor-1β, monomeric L-selectin [manufactured by Genzyme-Techne], monomeric P-selectin [manufactured by Genzyme-Techne] and monomeric CD44, to a glycosaminoglycan-coupled sensor tip at a flow rate of 30 μl/min for 0 to 90 seconds, and then injecting a running buffer thereto. A response in resonance unit was recorded as a function of a time.
A sensor tip surface was regenerated with 300 μl of 1 M NaCl when chemokine or CD44 was used, or regenerated with 300 μl of 1 M NaCl, and additional 100 μl of 50 mM EDTA (pH8.0), when selectin was used. As a result of regeneration of a sensor tip surface, a remarkable change in a baseline was not observed.
An affinity kinetic parameter was determined by BIAevaluation 3.0 software [manufactured by Pharmacia Biosensor] using a single site binding model. […] In FIG. 6 and Table 3, SLC denotes secondary lymphoid tissue chemokin, IP-10 denotes γ-interferon inducible protein-10, SDF-1β denotes stromal cell-derived factor-1β, CS E denotes chondroitin sulfate E, and CS A denotes chondroitin sulfate A. In addition, in Table 3, Kd value for the interaction between monomeric CD44 and chondroitin sulfate E is a value calculated from a binding amount at equilibrium, and Kd value of the interaction between CD44 and hyaluronic acid is a value calculated using CD44-Ig.

[2] = system: CD44-Ig; assay: ELISA, biotinylated versican binding to CD44-Ig in presence of glycosaminoglycan; parameters: species or system human; conditions: 100 μg/ml glycosaminoglycan; FIG. 5
CD44-Ig, sequence (P16070 21-178 limits assumed): as above
Protocol: (§1) A well of a 96 well flat bottom microtiter plate was coated with BSA (5 μg/ml), anti-versican monoclonal antibody 2B1 (5 μg/ml), CD44-Ig (7 μg/ml), L-selectin-Ig (3 μg/ml), P-selectin-Ig (3 μg/ml) or chemokine (1 μg/ml), and then blocked with a phosphate buffered physiological saline containing 3% by weight of BSA. As the above chemokine, secondary lymphoid tissue chemokine, γ-interferon inducible protein-10, platelet factor 4, stromal cell-derived factor-1β [manufactured by Pepro Tech] and stromal cell-derived factor-1α [manufactured by Pepro Tech] were used.
(§2) Thereafter, the plate was washed with the buffer A, and enzyme-linked immunosorbent assay was performed in the same manner as that of the previous report [Kawashima, H. et al., J. Biol. Chem., 275, 35448-35456 (2000)]. Binding was determined by measuring absorbance at 620 nm using alkaline phosphatase-conjugated streptavidin and Blue Phos™ substrate. In FIG. 5, expression of an abscissa axis is the same as that of FIG. 4.

[3] = system: secondary lymphoid tissue chemokine; assay: ELISA, biotinylated versican binding to SLC in presence of glycosaminoglycan; conditions: 100 μg/ml glycosaminoglycan; FIG. 5
Protocol: as §1, §2

[4] = system: P-selectin-Ig; assay: Binding inhibition assay (ELISA), biotinylated versican to P-selectin-Ig, various concentrations; conditions: dose-dependent, FIG. 2 panel B
Protocol: Inhibition assay of binding between versican and each of L-selectin, P-selectin and CD44 was performed as follows. First, each well on a 96 well flat bottom microtiter plate (Coster EIA/RIA plate No. 3690) was coated with L-selectin-Ig (3 μg/ml), P-selectin-Ig (4 μg/ml) or CD44-Ig (0.25 μg/ml) by a conventional procedure. […] The plate was incubated at room temperature for 2 hours. Thereafter, the plate was washed with the buffer A, and enzyme-linked immunosorbent assay was performed in the same manner as described in Kawashima, H. et al. [J. Biol. Chem., 275, 35448-35456 (2000)]. Binding was determined by measuring absorbance at 620 nm using alkaline phosphatase-conjugated streptavidin and Blue Phos™ substrate.

[5] = system: secondary lymphoid tissue chemokine; assay: Ca2+ mobilization in L1.2/CCR7 cells stimulated with SLC; type: cell-based; conditions: glycosaminoglycan 100 μg/ml; L1.2/CCR7 cells loaded with Fura-2; FIG. 8
Protocol: i) applying Fura-2 to stimulate to L1.2/CCR7 cell (1×10^6 cells/ml) with secondary lymphoid tissue chemokine in the presence or absence of the therapeutic or prophylactic agent (100 μg/ml) of the present invention, and
ii) measuring a fluorescent rate to monitor an intracellular calcium concentration according to the description of Hirose, J. et al. [J. Biol. Chem., 276, 5228-5234 (2001); all teachings of which are hereby incorporated by reference].
L1.2/CCR7 cells (1×10^6 cells/ml) were loaded with Fura-2, and then stimulated with secondary lymphoid tissue chemokine (“SLC” in FIG. 8) or C-terminal truncated secondary lymphoid tissue chemokine (“SLC-T” in FIG. 8), in the presence or absence of glycosaminoglycan (100 μg/ml). The intracellular calcium concentration was monitored by measuring a fluorescent rate in the same manner as described in the previous report [Hirose, J. et al., J. Biol. Chem., 276, 5228-5234 (2001)]. Chondroitin sulfate E (“CS E” in FIG. 8) and chondoroitin sulfate A (“CS A” in FIG. 8) were used as the glycosaminoglycan. In FIG. 8, an arrowhead indicates a time point at which stimulation was given.

[6] = target: T2, L-selectin-Ig (Homo sapiens, UniProt P14151); assay: ELISA, biotinylated versican binding to L-selectin-Ig in presence of glycosaminoglycan; conditions: 100 μg/ml glycosaminoglycan; FIG. 5
T2 construct: purchased R & D Systems Inc
T2 sequence (P14151 with tags, fused parts or gaps limits assumed): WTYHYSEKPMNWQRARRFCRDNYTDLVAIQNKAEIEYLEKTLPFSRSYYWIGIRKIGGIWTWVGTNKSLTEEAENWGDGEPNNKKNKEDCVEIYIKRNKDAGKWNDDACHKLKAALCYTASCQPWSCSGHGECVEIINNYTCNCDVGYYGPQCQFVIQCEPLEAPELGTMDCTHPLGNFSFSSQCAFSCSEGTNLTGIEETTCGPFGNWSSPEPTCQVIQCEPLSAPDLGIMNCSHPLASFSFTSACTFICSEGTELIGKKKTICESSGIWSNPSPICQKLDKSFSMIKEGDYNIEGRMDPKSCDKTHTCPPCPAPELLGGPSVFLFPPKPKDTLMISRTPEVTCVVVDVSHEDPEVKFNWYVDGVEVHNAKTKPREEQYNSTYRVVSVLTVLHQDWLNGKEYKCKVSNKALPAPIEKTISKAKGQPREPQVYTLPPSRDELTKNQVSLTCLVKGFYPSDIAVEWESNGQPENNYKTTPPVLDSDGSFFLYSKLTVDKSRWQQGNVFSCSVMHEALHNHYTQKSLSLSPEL
Protocol: as §1, §2

[7] = CD44 monomeric, GAG immobilized, 25° C.

Row | binding of monomeric CD44 to glycosaminoglycan ([1]; monomeric CD44) | inhibition of binding between biotinylated versican and CD44-Ig [2] | inhibition of binding between biotinylated versican and secondary lymphoid tissue chemokine [3] | inhibition of binding between biotinylated versican and P-selectin-Ig [4] | inhibition of binding between biotinylated versican and L-selectin [6] | Kd [1, 7] | koff [1, 7] | kon [1, 7] | Kd ([1]; monomeric CD44, weakly bound, equilibrium value) | Substance | Ca^2+ mobilization by secondary lymphoid tissue chemokine pre-incubated with glycosaminoglycan [5]
1 | did not bind | inhibited | inhibited | inhibited | inhibited |  |  |  |  | dermatan polysulfate [DPS] | did not induce
2 |  | inhibited |  | not inhibited |  | 85.2 µM | 0.049 s⁻¹ | 576 M⁻¹ s⁻¹ |  | chondroitin sulfate A [CS A] | remarkably induced
3 |  | inhibited | inhibited | inhibited | inhibited |  |  |  | 211 µM | chondroitin sulfate E [CS E] | did not induce
4 | did not bind | not remarkable | inhibited | inhibited | inhibited |  |  |  |  | chondroitin polysulfate [CPS] | did not induce
